Data published in patent publication US20060241183A1, “Compositions and methods of using D-DOPA to treat Parkinson's disease” (priority 2004, published 2006).

Assays:
[1] = test system: urinary excretion of dopamine; conditions: D- and L-DOPA 50 mg/kg; cited from earlier work
[2] = test system: striatal concentration of dopamine, DOPAC and HVA; test: Striatal dopamine, DOPAC and HVA after intragastric D- or L-DOPA plus carbidopa in rats with unilateral substantia nigra lesions; assay type: in vivo, male Sprague-Dawley Rats; conditions: for time for formation of dopamine in the striatum to reach its maximum concentration: after intragastric administration, inferred from DOPAC and HVA in lesion striata; for time to achieve maximum concentration of dopamine in the central nervous system: following intragastric administration; for increase of dopamine and its metabolites in the intact striata, D- versus L-DOPA / time at which dopamine content in the intact striata peaked / change of dopamine concentrations in the lesion striata: intragastric administration; for change of concentrations of DOPAC and HVA in the lesion striata: one hour after treatment
Source text: The present example illustrates the efficacy of the administration of D-DOPA of L-DOPA in vivo. In order to show the effectiveness of D-DOPA for increasing striatal dopamine content, male Sprague-Dawley Rats (Zivic-Miller, Allison Park, Pa.) weighing 300 to 400 grams were used. At least four weeks prior to the experiments, unilateral Substantia Nigra lesions were produced with intranigral administration of 6-hydroxydopamine according to the procedures set forth in Ungerstedt, Acta Physiol. Scand. (Suppl.) 367, 69 (1971).
The extent of unilateral Substantia Nigra lesions was tested by measuring apomorphine simulated rotation according to the procedures described in Understedt, supra, 1971; Freed et al. Ann. Neurol. 8, 510 (1980).
Either D- or L-DOPA was intragastrically administered to the rats in combination with carbidopa at doses of 50 mg/kg body weight of D-DOPA or L-DOPA and 5 mg/kg body weight of carbidopa, suspended in sterile water, to provide a pharmaceutically acceptable solution for administration. D- or L-DOPA was intragastrically administered to groups of five rats, which were sacrificed one or two hours after treatment. The left (intact) and right (lesioned) striata of these rats were excised and analyzed separately for the content of dopamine and its metabolites 3,4-dihydroxyphenylacetic acid (DOPAC) and homovanillic acid (HVA), according to the procedure as set forth in Karoum, Neuromethods, Vol. 2 (G. B. Baker, A. A. Boulton and J. M. Baker eds.), The Humana Press, Inc., New Jersey, page 305, 1985 (referred to hereafter as “Karoum, Neuromethods”).

circling = conditions: rats with unilateral 6-hydroxydopamine lesion; cited from earlier work
[3] = target: T1, L-amino acid decarboxylase (Homo sapiens, UniProt P20711); conditions: cited from earlier work
T1 sequence (P20711 1-480): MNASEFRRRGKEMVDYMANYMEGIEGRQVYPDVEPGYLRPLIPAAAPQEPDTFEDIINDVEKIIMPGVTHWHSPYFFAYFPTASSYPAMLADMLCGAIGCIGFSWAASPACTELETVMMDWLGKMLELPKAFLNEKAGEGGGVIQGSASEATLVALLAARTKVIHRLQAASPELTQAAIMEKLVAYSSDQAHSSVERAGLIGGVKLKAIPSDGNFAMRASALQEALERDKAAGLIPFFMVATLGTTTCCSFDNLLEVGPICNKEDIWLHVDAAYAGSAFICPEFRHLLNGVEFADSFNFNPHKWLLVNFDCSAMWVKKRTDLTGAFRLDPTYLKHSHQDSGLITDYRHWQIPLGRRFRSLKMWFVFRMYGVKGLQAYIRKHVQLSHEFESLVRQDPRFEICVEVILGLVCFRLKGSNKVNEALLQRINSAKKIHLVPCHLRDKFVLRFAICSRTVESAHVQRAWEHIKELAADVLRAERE

[4] = test system: striatal dopamine and its metabolites (DOPAC and HVA); test: Striatal dopamine, DOPAC and HVA after intraventricular administration of L-DOPA, D-DOPA or DHPPA; assay type: in vivo, Sprague-Dawley rats; conditions: for Striatal DOPAC / Striatal Dopamine / Striatal HVA: intraventricular, 10 μl, 2 h after treatment, mean ± S.E.M.
Protocol: The present example illustrates the possible involvement of DHPPA in the formation of dopamine from D-DOPA. […] In an attempt to examine an alternate pathway, four groups of Sprague-Dawley rats weighing 120-150 grams with cannulae permanently implanted into their lateral ventricles, according to the procedure described in Robinson et al., Physiol. Behav. 4, 123-124, (1969), were used. One group received 10 μl. of saline into the ventricles. The second, third and fourth groups received, intraventricularly, 200.μ.g of L-DOPA, D-DOPA and 3,4-dihydroxyphenylpyruvic acid (DHPPA) in 10 μl of saline, respectively. The rats were sacrificed two hours after treatment and their striata removed and analyzed. Striatal concentrations of dopamine, DOPAC and HVA were measured by massfragmentography according to the procedure set forth in Karoum, Neuromethods.

[5] = test system: striatal dopamine or its metabolites; test: Repeated intragastric administration of DHPPA plus carbidopa, striatal dopamine and metabolites; assay type: in vivo; conditions: concluded from repeated intragastric administration
hypothalamic dopamine = test: Hypothalamic dopamine and metabolites after intragastric D- and L-DOPA; assay type: in vivo; conditions: after intragastric administration
Source text: DHPPA can be formed from D-DOPA by either of two pathways, that is, direct transamination, or through deamination by D-amino acid oxidase, an enzyme widely distributed in the brain. The pattern of changes of striatal dopamine and its metabolites observed after intragastric administration of D- and L-DOPA are similar to those observed in the hypothalamus.

In the case of C[C@@](Cc1ccc(O)c(O)c1)(NN)C(=O)O [Carbidopa, carbidopa], the “reduction of urinary excretion of dopamine following D-DOPA compared with co-administration with L-DOPA” value [1] is given as “to a far greater degree”.

With N[C@H](Cc1ccc(O)c(O)c1)C(=O)O [D-DOPA] the “time for formation of dopamine in the striatum to reach its maximum concentration” value [2] was “within one hour”, the “time to achieve maximum concentration of dopamine in the central nervous system” value [2] was 2 h and the “increase of dopamine and its metabolites in the intact striata, D- versus L-DOPA” value [2] was “to about the same extent”. For the same molecule, the “time at which dopamine content in the intact striata peaked” value [2] was “two hours”, the “change of dopamine concentrations in the lesion striata” value [2] was “Neither D- nor L-DOPA increased dopamine concentrations” and the “change of concentrations of DOPAC and HVA in the lesion striata” value [2] was “markedly increased”. For the same molecule, the induction of circling (circling) was “can induce circling”, the “substrate for L-amino acid decarboxylase” value [3] was “not a substrate” and the “Striatal DOPAC” value [4] was 19 ± 0.92 ng/mg protein. For the same molecule, the “Striatal Dopamine” value [4] was 116 ± 5.1 ng/mg protein and the “Striatal HVA” value [4] was 4.8 ± 0.50 ng/mg protein.

For O=C(O)C(=O)Cc1ccc(O)c(O)c1 [DHPPA, 3,4-dihydroxyphenylpyruvic acid], the “elevations of dopamine and DOPAC compared with D- or L-DOPA” value ([4]; intraventricular administration) was “larger elevations”, the “Striatal DOPAC” value [4] was 96 ± 16.6 ng/mg protein and the “Striatal Dopamine” value [4] was 140 ± 11.0 ng/mg protein. For the same molecule, the “Striatal HVA” value [4] was 23.3 ± 3.53 ng/mg protein and the “crossing of the blood brain barrier” value [5] was “does not easily cross the blood brain barrier”.

With N[C@@H](Cc1ccc(O)c(O)c1)C(=O)O [L-DOPA] the “time for formation of dopamine in the striatum to reach its maximum concentration” value [2] was “within one hour”, the “time to achieve maximum concentration of dopamine in the central nervous system” value [2] was 1 h and the “increase of dopamine and its metabolites in the intact striata, D- versus L-DOPA” value [2] was “to about the same extent”. The “time at which dopamine content in the intact striata peaked” value [2] was “one hour”, the “change of dopamine concentrations in the lesion striata” value [2] was “Neither D- nor L-DOPA increased dopamine concentrations” and the “change of concentrations of DOPAC and HVA in the lesion striata” value [2] was “markedly increased”. For the same molecule, the “Striatal DOPAC” value [4] was 59 ± 9.49 ng/mg protein, the “Striatal Dopamine” value [4] was 120 ± 7.4 ng/mg protein and the “Striatal HVA” value [4] was 22.2 ± 1.60 ng/mg protein. The “increases in hypothalamic DOPAC and HVA, L-DOPA versus D-DOPA” value (hypothalamic dopamine) was “considerably higher”.
